In article doi:10.1101/2024.12.09.627564, “Cannabinoid inhibition of mechanosensitive K^+ channels” (bioRxiv, 2024):

Target: T1, hsTRAAK (Homo sapiens, UniProt Q9NYG8)
T1 construct: expressed in transfected cells; host or cells: HEK293T
T1 sequence (Q9NYG8 1-393): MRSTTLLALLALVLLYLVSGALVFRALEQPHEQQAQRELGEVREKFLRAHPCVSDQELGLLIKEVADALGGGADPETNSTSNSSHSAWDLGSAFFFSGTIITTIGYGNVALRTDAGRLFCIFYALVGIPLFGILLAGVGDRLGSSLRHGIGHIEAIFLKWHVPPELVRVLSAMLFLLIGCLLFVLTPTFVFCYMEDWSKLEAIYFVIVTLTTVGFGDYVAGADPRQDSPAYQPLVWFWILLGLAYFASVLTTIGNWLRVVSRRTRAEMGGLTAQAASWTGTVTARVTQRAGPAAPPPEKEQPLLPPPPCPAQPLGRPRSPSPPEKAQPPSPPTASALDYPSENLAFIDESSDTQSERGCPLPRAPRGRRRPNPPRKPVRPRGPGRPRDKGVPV
Assay: Whole-cell recordings of TRAAK in cultured HEK293T cells, extracellular CBD
Format: cell-based
Conditions: 1 and 10 μM CBD, 0 mV
Protocol: For patch clamp recording from cultured cells, drTREK-1 or hsTRAAK genes were cloned into a modified pCEH vector to generate C-terminally EGFP-tagged constructs. HEK293T were cultured in DMEM (Gibco, Thermo Fisher Scientific) with 10% FBS and 100 U ml−1 penicillin and 100 μg ml−1 streptomycin. Trypsinized cells were deposited on 12-mm glass coverslips in a six-well dish one to two days before transfection. For transfection, drTREK-1 or hsTRAAK plasmids were mixed with FuGENE 6 in OptiMEM at a 1:3 ratio with 1 μg DNA per well per construct and applied to cells in growth medium with antibiotics. Patching was conducted from 24 to 60 h post-transfection. Coverslips were placed in a perfusion chamber at room temperature in isotonic bath solution: 135 mM NaCl, 15 mM KCl, 1 mM CaCl2, 1 mM MgCl2, 10 mM HEPES, adjusted to a final pH of 7.5 with NaOH. Cells were chosen by a combination of the presence GFP fluorescence and cell morphology consistent with healthy interphase cells. […]
Patches were evaluated with voltage-step protocols to confirm TRAAK expression and minimal non-specific leak based on reversal potential. Currents were recorded using an Axopatch 200B amplifier (Molecular Devices) at a bandwidth of 1 kHz and digitized with an Digidata 1550B (Molecular Devices) at 100–500 kHz using pClamp10.7 software. […] Data were analyzed using Clampfit 10.7, Excel, and Graphpad Prism software. […]

C=C(C)[C@@H]1CCC(C)=C[C@H]1c1c(O)cc(CCCCC)cc1O [CBD, Cannabidiol]
inhibition of TRAAK by extracellular CBD: strongly inhibited
